Experimental data from US20250215030A1, “STAT MODULATORS AND USES THEREOF” (Recludix Pharma, Inc., priority 2022, published 2025).

The compounds below were run against T1, pSTAT3 (pY705-STAT3) (Homo sapiens, UniProt P40763) (assay: MSD-pSTAT-PBMC Assay (pSTAT3, IL-6 stimulated)). Conditions: not given.
T1 construct: host or cells: cryopreserved PBMC
Type: cell-based
Source text: Cryopreserved Peripheral Blood Mononuclear Cells (PBMC) are from AllCells. Recombinant Human IL-4 and IL-6 are from Peprotech. Mouse monoclonal anti-STAT3 antibody, rabbit monoclonal anti-pY705-STAT3 antibody, rabbit monoclonal Anti-pY641-STAT6 antibody, and lysis buffer are from Cell Signaling Technology (CST). Mouse monoclonal anti-STAT6 antibody is from BioLegend. Assay plates, blocker, and anti-rabbit secondary antibody are from Meso Scale Discovery (MSD).
Cryopreserved PBMCs were thawed out and allowed to recover overnight in IMDM+10% heat-inactivated FBS prior to plating 50,000 (STAT3) or 25,000 (STAT6) cells per well in 96-well U-bottom tissue culture plates. Cells were treated with compound for 3 hrs, then stimulated with 10 ng/mL IL-6 (STAT3) or 1 ng/mL IL-4 (STAT6) for 10 min. Cells were then spun down and washed with ice-cold PBS prior to lysing the cell pellet with 1× lysis buffer (CST) with 1× HALT protease and phosphatase inhibitor cocktail (Thermo). Lysates were transferred to and incubated overnight at 4° C. with shaking in QuickPlex 96-well high bind assay plates (MSD) pre-coated overnight with 30 μL per well of 0.6 μg/mL mouse monoclonal anti-STAT3 antibody (STAT3) or 2 μg/mL mouse monoclonal anti-STAT6 antibody (STAT6) in 1×PBS, and pre-blocked for 1 hour with 3% Blocker-A (MSD). Captured protein in the assay plates were then washed and probed with 25 μL per well of 0.25 μg/ml rabbit monoclonal anti-pY705-STAT3 antibody (STAT3) or 0.18 μg/ml rabbit monoclonal Anti-pY641-STAT6 antibody (STAT6) in 1% Blocker-A for 1 hour at room temperature with shaking, then washed and probed with 25 ul per well of 1 ug/mi Sulfo-TAG Labeled Goat Anti-Rabbit Antibody (MSD) in 1% Blocker-A for 1 hour at room temperature with shaking. Assay plates were then washed and 150 μL of 1× Read Buffer-T (MSD) was added to each well prior to reading on an SQ120 MSD Plate Reader. Assay signal from each sample was subtracted by the signal from unstimulated control wells and normalized to DMSO control wells. IC50 values were calculated using Graph Pad Prism Dose-Response Nonlinear Regression with variable slope. For both pSTAT3 and pSTAT6 A=≤100 nM; B=>100-1000 nM; C=>1000-3000 nM; and D=>3 μM.

T1 sequence (P40763 whole entry): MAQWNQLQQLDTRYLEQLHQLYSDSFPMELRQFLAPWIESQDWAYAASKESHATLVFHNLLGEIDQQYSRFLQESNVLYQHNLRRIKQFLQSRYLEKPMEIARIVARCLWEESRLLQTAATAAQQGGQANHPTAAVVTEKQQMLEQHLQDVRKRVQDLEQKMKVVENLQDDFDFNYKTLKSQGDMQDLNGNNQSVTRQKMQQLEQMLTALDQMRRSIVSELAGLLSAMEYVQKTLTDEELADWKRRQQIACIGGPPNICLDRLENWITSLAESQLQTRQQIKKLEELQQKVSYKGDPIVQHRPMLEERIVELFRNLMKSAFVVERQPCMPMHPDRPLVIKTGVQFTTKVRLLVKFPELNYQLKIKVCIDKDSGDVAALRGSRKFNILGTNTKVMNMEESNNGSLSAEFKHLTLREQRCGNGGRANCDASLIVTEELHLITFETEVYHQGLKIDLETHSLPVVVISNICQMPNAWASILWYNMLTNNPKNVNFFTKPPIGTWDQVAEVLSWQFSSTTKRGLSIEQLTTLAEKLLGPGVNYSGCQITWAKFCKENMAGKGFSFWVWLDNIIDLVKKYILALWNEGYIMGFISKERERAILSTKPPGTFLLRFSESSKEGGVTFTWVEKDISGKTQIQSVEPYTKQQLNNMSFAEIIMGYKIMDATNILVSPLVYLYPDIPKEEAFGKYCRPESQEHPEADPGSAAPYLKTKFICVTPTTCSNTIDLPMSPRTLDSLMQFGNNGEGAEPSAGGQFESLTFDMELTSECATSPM

Compound | IC50
CCCOC(=O)[C@@H](C)NP(=O)(Oc1ccccc1)C(F)c1ccc2sc(C(=O)N[C@H]3C[C@@H]4C[C@@H]4C[C@H]4CC[C@@H](C(=O)N5C[C@@H]6[C@H]5CCN6C(C)=O)N4C3=O)cc2c1 (stereo in doubt) [Compound 291, propyl(((2-(((3S,6S,7aS,8aR,9aR)-3-((1S,5S)-2-acetyl-2,6-diazabicyclo[3.2.0]heptane-6-carbonyl)-5-oxodecahydro-1H-cyclopropa[d]pyrrolo[1,2-a]azocin-6-yl)carbamoyl)benzo[b]thiophen-5-yl)fluoromethyl)(phenoxy)phosphoryl)-L-alaninate] | < 100 nM
Cc1ccncc1C1CN(C(=O)[C@@H]2CC[C@@H]3C[C@H]4C[C@H]4C[C@H](NC(=O)c4cc5cc(C(F)P(=O)(N[C@@H](C)C(=O)OC(C)C)Oc6ccccc6)ccc5s4)C(=O)N32)C1 (stereo partly drawn) [Compound 281, isopropyl ((fluoro(2-(((3S,6S,7aS,8aR,9aR)-3-(3-(4-methylpyridin-3-yl)azetidine-1-carbonyl)-5-oxodecahydro-1H-cyclopropa[d]pyrrolo[1,2-a]azocin-6-yl)carbamoyl)benzo[b]thiophen-5-yl)methyl)(phenoxy)phosphoryl)-L-alaninate] | < 100 nM

Same assay, conditions: PBMC, compound 3 hrs, then 10 ng/mL IL-6 for 10 min; MSD pY705-STAT3; read-out: pSTAT3

Compound | IC50
propyl(((2-(((3S,6S,7aS,8aR,9aR)-8a-methyl-5-oxo-3-(3-(pyridin-3-yl)azetidine-1-carbonyl)decahydro-1H-cyclopropa[d]pyrrolo[1,2-a]azocin-6-yl)carbamoyl)benzo[b]thiophen-5-yl)methyl)(phenoxy)phosphoryl)-L-alaninate [Compound 233] | < 100 nM
CC(C)OC(=O)[C@H](C)N[P@@](=O)(Cc1ccc2sc(C(=O)N[C@H]3C[C@@H]4C[C@@H]4C[C@H]4CC[C@@H](C(=O)N5CC(C(=O)N6CCOCC6)C5)N4C3=O)cc2c1)Oc1ccccc1 (single isomer, unassigned) [Example 5] | 1000 to 3000 nM
CC(C)(CO)C(=O)OCOP(=O)(OCOC(=O)C(C)(C)CO)C(F)(F)c1ccc2sc(C(=O)N[C@H]3C[C@@H]4C[C@@H]4C[C@H]4CC[C@@H](C(=O)N5CC(C(=O)N6CCOCC6)C5)N4C3=O)cc2c1 [Compound 132, (((difluoro(2-(((3S,6S,7aS, 8aR,9aR)-3-(3-(morpholine-4-carbonyl)azetidine-1-carbonyl)-5-oxodecahydro-1H-cyclopropa[d]pyrrolo[1,2-a]azocin-6-yl)carbamoyl)benzo[b]thiophen-5-yl)methyl)phosphoryl)bis(oxy)) bis(methylene) bis(3-hydroxy-2,2-dimethyl-propanoate)] | > 3000 nM
CCCOC(=O)[C@H](C)NP(=O)(Oc1ccccc1)C(F)c1ccc2sc(C(=O)N[C@H]3C[C@@H]4C[C@@H]4C[C@H]4CC[C@@H](C(=O)N5CC(c6ncc(C)o6)C5)N4C3=O)cc2c1 (stereo partly drawn) [Compound 325, propyl ((fluoro(2-(((3S,6S,7aS,8aR,9aR)-3-(3-(5-methyloxazol-2-yl)azetidine-1-carbonyl)-5-oxodecahydro-1H-cyclopropa[d]pyrrolo[1,2-a]azocin-6-yl)carbamoyl)benzo[b]thiophen-5-yl)methyl)(phenoxy)phosphoryl)-L-alaninate] | 100 to 1000 nM
Cc1ccncc1C1CN(C(=O)[C@@H]2CC[C@@H]3C[C@H]4C[C@H]4C[C@H](NC(=O)c4cc5cc(C(F)P(=O)(N[C@@H](C)C(=O)OCC(C)C)Oc6ccccc6)ccc5s4)C(=O)N32)C1 (stereo partly drawn) [Compound 374, isobutyl ((fluoro(2-(((3S,6S,7aS,8aR,9aR)-3-(3-(4-methylpyridin-3-yl)azetidine-1-carbonyl)-5-oxodecahydro-1H-cyclopropa[d]pyrrolo[1,2-a]azocin-6-yl)carbamoyl)benzo[b]thiophen-5-yl)methyl)(phenoxy)phosphoryl)-L-alaninate] | < 100 nM
